# Test results reported in article PMC12198407, “Preclinical and first-in-human of purinostat mesylate, a novel selective HDAC I/IIb inhibitor, in relapsed/refractory multiple myeloma and lymphoma” (Signal Transduction and Targeted Therapy, 2025).
# pIC50: −log10 of the molar value. Where two headings read alike, the source gives them in different places.
# Assays:
# HDAC7 = HDAC7 (Homo sapiens, UniProt Q8WUI4); assay: HDAC enzyme activity in vitro; type: biochemical
# HDAC1 = HDAC1 (Homo sapiens, UniProt Q13547); assay: HDAC enzyme activity in vitro; type: biochemical
# Chain of HDAC1 (Q13547 whole entry): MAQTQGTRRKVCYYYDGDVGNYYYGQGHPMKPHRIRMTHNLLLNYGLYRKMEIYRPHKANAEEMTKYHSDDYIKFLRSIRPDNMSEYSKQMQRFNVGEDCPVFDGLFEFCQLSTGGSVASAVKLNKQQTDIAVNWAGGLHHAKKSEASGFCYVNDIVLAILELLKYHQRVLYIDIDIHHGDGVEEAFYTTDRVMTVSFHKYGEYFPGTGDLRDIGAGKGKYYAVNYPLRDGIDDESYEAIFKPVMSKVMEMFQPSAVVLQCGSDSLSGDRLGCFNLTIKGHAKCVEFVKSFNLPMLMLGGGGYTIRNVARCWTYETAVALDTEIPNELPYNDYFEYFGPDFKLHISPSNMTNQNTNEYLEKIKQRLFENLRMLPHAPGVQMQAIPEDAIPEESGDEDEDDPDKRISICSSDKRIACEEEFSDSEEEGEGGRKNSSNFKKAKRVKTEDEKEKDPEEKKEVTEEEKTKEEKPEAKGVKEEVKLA
# [1] = Safety pharmacology, CNS and respiratory; type: in vivo, rats; settings: 30 and 90 mg/kg i.v.
# Description: In the 1.2 and 3.6 mg/kg groups, transient increases in heart rate were observed, and in the 3.6 mg/kg group, a transient and reversible prolongation of QT interval (9.6%) was also noted. Additionally, there were no significant effects observed on other qualitative and quantitative ECG parameters or blood pressure in the dogs. […] In the 90 mg/kg group, reduced locomotor activity and decreased standing frequency were also observed, but these effects returned to baseline after 24 hours. No significant effects were noted on other neurological behaviors in rats, and no impacts on the respiratory system were observed.
# CYP2B6 = biological target: T1, CYP2B6 (Homo sapiens, UniProt P20813); assay: CYP inhibition, human liver microsomes; type: in vitro ADME
# T1 construct: human liver microsomal cytochrome P450 isoenzymes; from tissue; host or cells: human liver microsomes
# T1 sequence (P20813 whole entry): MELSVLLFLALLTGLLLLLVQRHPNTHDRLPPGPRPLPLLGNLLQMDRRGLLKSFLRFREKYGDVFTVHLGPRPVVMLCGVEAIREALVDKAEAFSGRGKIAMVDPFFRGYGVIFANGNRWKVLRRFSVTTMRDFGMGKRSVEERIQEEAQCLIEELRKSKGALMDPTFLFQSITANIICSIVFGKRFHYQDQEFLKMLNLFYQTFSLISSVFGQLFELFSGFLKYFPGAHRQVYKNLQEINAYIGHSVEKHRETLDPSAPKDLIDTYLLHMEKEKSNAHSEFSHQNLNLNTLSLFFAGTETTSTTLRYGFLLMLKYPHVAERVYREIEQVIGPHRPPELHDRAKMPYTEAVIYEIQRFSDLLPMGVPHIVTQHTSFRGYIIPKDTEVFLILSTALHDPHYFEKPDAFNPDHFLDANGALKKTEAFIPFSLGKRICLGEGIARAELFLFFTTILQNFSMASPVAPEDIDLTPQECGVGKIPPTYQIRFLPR
# [2] = system: class IIb HDAC substrate α-tubulin in SUDHL-6, Daudi, Raji, Ramos, RPMI-8226; assay: Cellular acetylation of α-tubulin; type: cell-based, human
# From the text: The results of these cell experiments were consistent with the in vitro enzyme activity assay results.
# [3] = system: human multiple myeloma RPMI-8226; type: in vivo
# [4] = human, in vivo
# HDAC4 = HDAC4 (Homo sapiens, UniProt P56524); assay: HDAC enzyme activity in vitro; type: biochemical
# Chain of HDAC4 (P56524 whole entry): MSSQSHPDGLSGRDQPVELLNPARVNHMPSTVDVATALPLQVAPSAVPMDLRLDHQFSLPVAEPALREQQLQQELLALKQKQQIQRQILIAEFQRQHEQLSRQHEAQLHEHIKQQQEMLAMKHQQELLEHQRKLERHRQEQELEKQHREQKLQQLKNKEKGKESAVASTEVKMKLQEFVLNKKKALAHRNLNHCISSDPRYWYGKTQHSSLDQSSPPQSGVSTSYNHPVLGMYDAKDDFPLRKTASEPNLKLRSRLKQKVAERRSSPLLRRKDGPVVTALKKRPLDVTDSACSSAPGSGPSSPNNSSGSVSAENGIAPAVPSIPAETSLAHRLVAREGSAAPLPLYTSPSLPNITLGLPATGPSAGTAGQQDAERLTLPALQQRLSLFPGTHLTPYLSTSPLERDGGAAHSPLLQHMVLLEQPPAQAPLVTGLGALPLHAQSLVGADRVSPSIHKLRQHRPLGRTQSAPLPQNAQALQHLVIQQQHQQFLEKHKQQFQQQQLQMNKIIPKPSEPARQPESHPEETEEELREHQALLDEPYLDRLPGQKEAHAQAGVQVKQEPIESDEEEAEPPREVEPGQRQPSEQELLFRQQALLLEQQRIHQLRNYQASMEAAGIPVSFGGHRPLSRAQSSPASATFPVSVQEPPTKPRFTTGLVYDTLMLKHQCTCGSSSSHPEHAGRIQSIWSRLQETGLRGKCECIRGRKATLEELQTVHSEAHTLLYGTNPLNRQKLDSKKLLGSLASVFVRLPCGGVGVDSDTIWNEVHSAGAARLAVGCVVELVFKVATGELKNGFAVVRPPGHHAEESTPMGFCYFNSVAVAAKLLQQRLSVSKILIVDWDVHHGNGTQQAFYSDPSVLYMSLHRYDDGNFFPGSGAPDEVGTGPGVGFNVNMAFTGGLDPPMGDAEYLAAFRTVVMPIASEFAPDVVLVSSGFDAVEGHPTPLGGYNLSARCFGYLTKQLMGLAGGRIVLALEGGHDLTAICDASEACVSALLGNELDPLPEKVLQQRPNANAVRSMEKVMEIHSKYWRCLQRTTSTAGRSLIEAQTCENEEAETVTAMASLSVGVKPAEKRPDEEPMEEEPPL
# [5] = system: Salmonella typhimurium TA97, TA98, TA100, TA102, TA1535; assay: Microbial reverse mutation test (Ames); settings: 50–5000 μg/plate, with and without S9
# Description: In this experiment, two methods were selected: one with the S9 metabolic activation system and one without. The test strains used were histidine-dependent mutant strains of Salmonella typhimurium, specifically TA97, TA98, TA100, TA102, and TA1535. Under both conditions, with and without the S9 metabolic activation system, Purinostat Mesylate was tested at a maximum dose of 5000 μg/plate, along with four additional dose groups of 1500, 500, 150, and 50 μg/plate. A solvent control group (DMSO) and a positive control group (administering the appropriate positive agent) were also included, with each concentration tested in triplicate. The experiment was repeated once.
# 5TGM1-luc myeloma = assay: 5TMM mouse model, survival and serum calcium; type: in vivo, C57BL/KawRij mice; parameters: serum calcium level: unit not given here; settings: 10 mg/kg
# Description: The cMYC-KRAS12V-induced plasmacytoma mouse model in BALB/c (GemPharmatech Co., Ltd., Nanjing, China) was established as previously described.[33] On day 28 or 35 post bone marrow transplantation, recipients received various treatments. The 5TMM mouse model was established as previously described.[55] The 5TGM1-luc cells were intravenously injected into 6-week-old C57BL/KawRij mice (Harlan Co. Netherlands) with 2 × 10^6 cells per mouse. After three weeks, mice were treated with vehicle or PM 10 mg/kg. Serum Ca^2+ levels were monitored weekly for three weeks after the start of administration. Kaplan-Meier survival curves were generated for each treatment group. Additionally, the 5TMM mouse model studying PM’s effects on immune response and bone destruction involved randomizing mice into vehicle and PM (10 mg/kg) groups one week after inoculation. T cell subsets were analyzed by flow cytometry 24 h after a single dose and 1 month after vehicle or PM treatment. The mice were sacrificed after 1 month of treatment, and the bone destruction was detected by Micro-CT.
# HDAC3 = HDAC3 (Homo sapiens, UniProt O15379); assay: HDAC enzyme activity in vitro; type: biochemical
# Chain of HDAC3 (O15379 whole entry): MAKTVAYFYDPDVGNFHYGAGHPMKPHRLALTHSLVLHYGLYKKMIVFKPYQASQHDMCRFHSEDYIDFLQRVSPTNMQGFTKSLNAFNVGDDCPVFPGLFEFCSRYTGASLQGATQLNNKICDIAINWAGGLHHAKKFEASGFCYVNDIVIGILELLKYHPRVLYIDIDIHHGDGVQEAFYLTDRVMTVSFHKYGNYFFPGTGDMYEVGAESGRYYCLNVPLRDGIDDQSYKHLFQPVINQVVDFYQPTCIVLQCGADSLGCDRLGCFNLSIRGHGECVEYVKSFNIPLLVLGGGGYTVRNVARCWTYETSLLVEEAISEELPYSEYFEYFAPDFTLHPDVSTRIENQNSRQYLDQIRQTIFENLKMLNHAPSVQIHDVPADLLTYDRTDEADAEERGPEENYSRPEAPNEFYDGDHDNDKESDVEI
# Chain of HDAC3 (Q9Y618 395-489 partner limits assumed): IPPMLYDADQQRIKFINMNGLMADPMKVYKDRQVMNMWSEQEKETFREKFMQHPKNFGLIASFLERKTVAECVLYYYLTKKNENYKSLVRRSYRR
# [6] = Plasma protein binding, equilibrium dialysis; type: in vitro ADME; settings: read-out: plasma protein binding rate (converted)
# Description: The plasma protein binding rate of Purinostat Mesylate was measured using equilibrium dialysis in Sprague-Dawley rats, Beagle dogs, crab-eating monkeys, and human plasma.
# [7] = system: mouse BM-derived osteoclasts (M-CSF, RANKL); assay: Osteoclast formation, TRAP staining; type: cell-based, C57BL/6 mice; settings: M-CSF and RANKL induced
# Description: Primary mouse BM cells were collected from 6-to-8 weeks C57BL/6 mice, and 1.0 × 10^5 cells were seeded into 48-well plates with α-MEM containing 10% FBS and 40 ng/mL M-CSF (PeproTech, catalog # 315-02) for 3 days to recruit macrophage and then induce osteoclast differentiation plus 50 ng/mL RANKL (R&D, catalog # 462-TEC-010/CF) with or without indicated concentration of PM for 4 days. Half-media changes were carried out every 2 days. The TRAP staining kit was purchased from Sigma-Aldrich (CS0704), and TRAP staining was performed according to the kit instructions.
# [8] = Acute toxicity test, intravenous; type: in vivo, Beagle dogs
# Description: In this study, the designed doses were 10 and 50 mg/kg administered intravenously. […] The maximum tolerated dose (MTD) was determined to be 10 mg/kg.
# From the text for in vivo: According to the "Guidelines for the Clinical Trial of Antineoplastic Drugs," for cytotoxic agents, the maximum recommended starting dose (MRSD) can be determined as one-tenth of the maximum tolerated dose (MTD) in rodent studies or one-sixth of the MTD in non-rodent species, expressed in mg/m². For some non-cytotoxic antineoplastic agents, due to their relatively lower toxicity, the starting dose for single administration in Phase I clinical trials can be calculated using one-fifth of the No Observed Adverse Effect Level (NOAEL) from non-rodent studies, or higher.
# The Pharmacological Active Dose (PAD) based on mice is used to predict the minimum dose that may produce the expected pharmacological effect in humans.
# Chain of HDAC7 (Q8WUI4 whole entry): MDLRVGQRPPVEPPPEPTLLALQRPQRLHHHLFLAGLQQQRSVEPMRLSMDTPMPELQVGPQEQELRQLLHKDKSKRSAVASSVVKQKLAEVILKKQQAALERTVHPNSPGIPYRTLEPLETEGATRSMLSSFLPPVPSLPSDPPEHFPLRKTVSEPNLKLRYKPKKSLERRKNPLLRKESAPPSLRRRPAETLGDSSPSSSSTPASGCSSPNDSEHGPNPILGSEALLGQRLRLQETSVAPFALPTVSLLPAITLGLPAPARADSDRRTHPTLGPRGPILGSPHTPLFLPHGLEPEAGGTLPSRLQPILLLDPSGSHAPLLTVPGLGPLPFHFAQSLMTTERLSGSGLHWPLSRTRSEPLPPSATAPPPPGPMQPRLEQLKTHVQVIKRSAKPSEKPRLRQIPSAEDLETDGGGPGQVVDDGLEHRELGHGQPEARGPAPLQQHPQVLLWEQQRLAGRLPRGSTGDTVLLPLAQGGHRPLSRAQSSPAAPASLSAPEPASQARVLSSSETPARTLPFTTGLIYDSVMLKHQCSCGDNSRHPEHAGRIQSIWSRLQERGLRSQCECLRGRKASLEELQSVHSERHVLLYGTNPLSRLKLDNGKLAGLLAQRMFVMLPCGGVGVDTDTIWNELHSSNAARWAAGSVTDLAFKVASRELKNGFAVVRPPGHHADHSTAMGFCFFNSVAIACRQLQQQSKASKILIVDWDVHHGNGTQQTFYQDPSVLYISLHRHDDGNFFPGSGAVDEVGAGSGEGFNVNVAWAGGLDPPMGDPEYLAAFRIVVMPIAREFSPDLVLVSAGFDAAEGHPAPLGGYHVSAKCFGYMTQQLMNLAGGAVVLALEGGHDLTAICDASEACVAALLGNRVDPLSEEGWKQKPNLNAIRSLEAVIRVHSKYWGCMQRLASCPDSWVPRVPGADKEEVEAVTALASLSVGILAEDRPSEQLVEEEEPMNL
structure (smiles),measurement,setting,value
"CN(Cc1nc2c(N3CCOCC3)nc(-c3ccc(N)cc3)nc2n1C)c1ncc(C(=O)NO)cn1.CS(=O)(=O)O [PM, 2-(((2-(4-Aminophenyl)-9-methyl-6-(4-morpholinyl)-9H-purine-8-yl)methyl)methylamino)-N-hydroxy-5-pyrimidine-carboxamide Mesylate]",pIC50,HDAC7,6.23
same,pIC50,HDAC1,9.09
same,body temperature,[1],a decrease in body temperature
same,NOAEL,"in vivo; beagle, dog",< 0.3 mg/kg
same,NOAEL,in vivo; rat,< 3 mg/kg
same,pIC50,CYP2B6,< 5.00
same,concentration inducing increased acetylation of α-tubulin,[2],3 to 10 nM
same,T/C,[3]; 1.25 mg/kg,13.9%
same,tumor inhibition rate,[3]; 1.25 mg/kg,81.61%
same,T/C,[3]; 2.5 mg/kg,6.6%
same,tumor inhibition rate,[3]; 2.5 mg/kg,92.33%
same,T/C,[3]; 5 mg/kg,2.7%
same,tumor inhibition rate,[3]; 5 mg/kg,97.77%
same,T/C,[3]; 10 mg/kg,2.2%
same,tumor inhibition rate,[3]; 10 mg/kg,97.77%
same,median survival time,"[3]; satellite groups, PM 5 mg/kg alone or combined, control regimens",67.5 days
same,QT interval prolongation on ECG,[4],10(34.5) n (%)
same,cardiac toxic adverse events,[4],no grade 3 or higher events occurring
same,"transient QTc interval prolongation, grade",[4],≤ 2 grade
same,pIC50,HDAC4,5.97
same,Ames test result,[5],negative
same,serum calcium level,"5TGM1-luc myeloma; two weeks, vehicle 20.93",8.972
same,survival,5TGM1-luc myeloma; vehicle 50 days,86 days
same,pIC50,HDAC3,8.77
same,fraction unbound at 0.2 µM,"[6]; Beagle, dog",0.169
same,fraction unbound at 2 µM,"[6]; Beagle, dog",0.164
same,fraction unbound at 10 µM,"[6]; Beagle, dog",0.167
same,fraction unbound at 0.2 µM,"[6]; Sprague-Dawley, rat",0.057
same,fraction unbound at 2 µM,"[6]; Sprague-Dawley, rat",0.045
same,fraction unbound at 10 µM,"[6]; Sprague-Dawley, rat",0.045
same,fraction unbound at 0.2 µM,[6]; human,0.097
same,fraction unbound at 2 µM,[6]; human,0.1
same,fraction unbound at 10 µM,[6]; human,0.096
same,fraction unbound at 0.2 µM,[6]; monkey,0.216
same,fraction unbound at 2 µM,[6]; monkey,0.205
same,fraction unbound at 10 µM,[6]; monkey,0.21
same,mature osteoclast formation (TRAP staining),[7],obviously suppressed mature osteoclast cells formation
same,mortality,[8]; 50 mg/kg,all animals dying between days 2 and 4
same,MTD,"[8]; beagle, dog, in vivo, iv, single i.v., read-out: maximum tolerated dose (MTD)",10 mg/kg
